The values below come from ChEMBL document CHEMBL3638677, “Bicyclic compounds and their uses as dual c-SRC/JAK inhibitors” (2015).

In test [1] the target is Proto-oncogene tyrosine-protein kinase Src (Homo sapiens, UniProt P12931). Briefly: TR-FRET Assay: Compounds were screened in the TR-FRET assay for JAK2 and c-Src kinase inhibition. Ultra light poly GT (Perkin Elmer) was used as the substrate for JAK2 and c-Src with the ATP concentration of 10 μM and 50 μM, respectively. The Eu-labelled anti-phospho tyrosine antibody (Perkin Elmer) was added at 1 nM and the fluorescence emission at 615 nm and 665 nm was measured with an excitation wavelength of 340 nm.

The target of test [2] is Tyrosine-protein kinase JAK2 (Homo sapiens, UniProt O60674). Briefly: TR-FRET Assay: Compounds were screened in the TR-FRET assay for JAK2 and c-Src kinase inhibition. Ultra light poly GT (Perkin Elmer) was used as the substrate for JAK2 and c-Src with the ATP concentration of 10 μM and 50 μM, respectively.

In general, IC50 refers to the concentration that gives 50% inhibition.

Chain of Tyrosine-protein kinase JAK2 (O60674 whole entry): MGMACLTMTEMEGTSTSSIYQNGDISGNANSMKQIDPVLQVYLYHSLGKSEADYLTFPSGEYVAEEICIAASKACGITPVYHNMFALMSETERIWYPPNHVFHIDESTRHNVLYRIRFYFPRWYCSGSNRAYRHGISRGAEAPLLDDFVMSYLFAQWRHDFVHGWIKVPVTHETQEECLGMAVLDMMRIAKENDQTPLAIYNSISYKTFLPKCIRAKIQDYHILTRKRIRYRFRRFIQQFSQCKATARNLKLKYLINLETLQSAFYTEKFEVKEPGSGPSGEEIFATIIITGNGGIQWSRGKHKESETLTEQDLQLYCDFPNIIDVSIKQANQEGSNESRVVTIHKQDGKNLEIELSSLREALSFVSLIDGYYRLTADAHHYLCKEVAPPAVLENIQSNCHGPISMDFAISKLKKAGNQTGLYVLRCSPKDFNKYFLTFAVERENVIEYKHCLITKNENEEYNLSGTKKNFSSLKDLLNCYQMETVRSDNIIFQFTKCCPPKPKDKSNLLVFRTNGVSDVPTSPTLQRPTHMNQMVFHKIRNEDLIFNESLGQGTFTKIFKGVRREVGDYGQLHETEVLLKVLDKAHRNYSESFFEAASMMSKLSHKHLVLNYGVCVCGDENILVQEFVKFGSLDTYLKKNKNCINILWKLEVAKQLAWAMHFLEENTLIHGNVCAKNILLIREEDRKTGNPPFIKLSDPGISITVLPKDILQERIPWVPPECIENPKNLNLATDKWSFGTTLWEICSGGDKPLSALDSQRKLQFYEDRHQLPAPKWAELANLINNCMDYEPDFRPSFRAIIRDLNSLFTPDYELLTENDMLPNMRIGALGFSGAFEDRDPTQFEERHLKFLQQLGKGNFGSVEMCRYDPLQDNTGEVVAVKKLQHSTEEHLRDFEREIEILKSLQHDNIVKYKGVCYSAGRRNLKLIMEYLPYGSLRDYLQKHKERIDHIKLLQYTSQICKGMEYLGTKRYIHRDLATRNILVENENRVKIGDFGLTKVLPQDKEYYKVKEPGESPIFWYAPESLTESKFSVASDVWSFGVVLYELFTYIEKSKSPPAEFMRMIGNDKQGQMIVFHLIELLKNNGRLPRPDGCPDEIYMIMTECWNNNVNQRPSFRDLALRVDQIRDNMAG
Chain of Proto-oncogene tyrosine-protein kinase Src (P12931 2-536 limits assumed): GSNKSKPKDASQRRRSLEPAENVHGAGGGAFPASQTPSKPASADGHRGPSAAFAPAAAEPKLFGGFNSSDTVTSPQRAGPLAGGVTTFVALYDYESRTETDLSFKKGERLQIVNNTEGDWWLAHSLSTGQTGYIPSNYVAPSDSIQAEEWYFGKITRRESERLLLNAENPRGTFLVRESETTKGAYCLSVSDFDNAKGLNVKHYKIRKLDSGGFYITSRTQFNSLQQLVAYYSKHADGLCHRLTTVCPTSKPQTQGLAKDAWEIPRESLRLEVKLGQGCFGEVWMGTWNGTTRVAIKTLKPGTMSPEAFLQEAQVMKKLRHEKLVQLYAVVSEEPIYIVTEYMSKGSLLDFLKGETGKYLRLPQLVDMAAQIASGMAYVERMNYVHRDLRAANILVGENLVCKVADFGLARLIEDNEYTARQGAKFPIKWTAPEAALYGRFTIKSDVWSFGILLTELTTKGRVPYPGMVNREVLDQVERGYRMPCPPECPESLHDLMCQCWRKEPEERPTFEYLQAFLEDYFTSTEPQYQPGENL

Turning to `Cc1ccc(NC(=O)c2cccc(C(C)(C)C)c2)cc1N1CCc2nc(Nc3ccc(N4CCN(C)CC4)cc3)ncc2C1=O`, the IC50 turned out to be 28 nM in test [1] and 45 nM in test [2].
As for `CN1CCN(c2ccc(Nc3ncc4c(n3)CCN(c3cc(NC(=O)c5cccc(C(F)(F)F)c5)ccc3Cl)C4)cc2)CC1`, the IC50 in test [2] is 8.8 nM. That is a single-digit nanomolar value.
On the same count and under the same terms, to `CN1CCN(c2ccc(Nc3ncc4c(n3)CCN(c3cc(NC(=O)c5cc(F)cc(C(F)(F)F)c5)ccc3Cl)C4=O)cc2)CC1` belongs 9 nM.
As for `Cc1ccc(NC(=O)c2cccc(C(F)(F)F)c2)cc1N1CCc2nc(Nc3ccc(C(=O)NC4CCN(C)CC4)cc3)ncc2C1`, the IC50 in test [1] came to 2 nM; in test [2], 7 nM.
